Reference: paper PMC11881437 (Molecular Medicine, 2025)

How the values were obtained:
[1] = test system: CES from HIF1α transfected HCT116 cells; assay: Diameter and number of CES from HIF1α transfected HCT116 cells; format: cell-based, human
Protocol: HCT116 CRC cells were grown in ultra-low attachment plate in 3dGRO™ Spheroid Medium (Sigma-Aldrich, USA) for 7 days. Spheroids enriched with CSCs were considered as CSC enriched spheres (CESs) or commonly referred as tumorospheres. After 7 days, tumorospheres were subjected to different treatments for 24 h, as per experimental protocol. Media of tumorospheres of all the treatment groups were collected, centrifuged to remove the cell debris and suspended spheres, supernatants were collected and vacuum concentrated. These supernatants were referred as conditioned medium (CM) and were stored at − 20 °C until use.
HCT116 cells were transiently transfected with HA-HIF1α-pcDNA3 plasmid (Addgene, USA, Plasmid #18949) by using lipofectamineTM 2000 (Thermo Fisher Scientific, USA) according to the manufacturer’s instructions. After 24 h of transfection, those cells were subjected to various experiments.

[2] = test system: OCT4, NANOG and SOX2; assay: Western blot of stemness factors in sorted CD44+/CD133+ cells; format: cell-based, human; settings: 24 h, compared to 5FU treated group
Source text: CD44^+/CD133^+ cells were isolated using MACS LS column (Miltenyi Biotec, USA) after leveled with CD44 and CD133 antibody conjugated with microbeads (Miltenyi Biotec, USA) by following manufacture’s protocol and subjected to further analysis. Cells expressing both CD44 and CD133 were isolated using magnetic cell sorter (MACS) (Guerriero et al. [2017]).
Protein samples were extracted from treated and untreated cells and subjected to western blot analysis by standard protocol (Bhowmik et al. [2013]). Cells were incubated with Brefeldin A (10 µg/ml) for 4 h before harvesting to determine VEGFA expression. Briefly, cells were lysed with RIPA buffer [50 mmol/L Tris–HCl (pH 7.8), 150 mmol/L NaCl, 1% Triton X-100, 0.1% SDS, 0.5% sodium deoxycholate, and 1 mmol/L EDTA] containing complete protease inhibitor cocktail. Equal amount of protein was electrophoresed on SDS-PAGE and electro transferred onto polyvinylidene difluoride (PVDF) membranes using Bio-Rad mini gel apparatus. […] Signals were detected with the ECL system (Promega, USA) and images were captured in iBright™ CL1500 Imaging System.

Compound: O=c1cc(-c2ccc(O)c(O)c2)oc2c([C@@H]3O[C@H](CO)[C@@H](O)[C@H](O)[C@H]3O)c(O)cc(O)c12 [Orientin]
- diameter of spheres [1]: decrease
- number of spheres [1]: decrease
- protein expression of OCT4, NANOG and SOX2 [2]: downregulated
